Calls of active or inactive are those of the source.
How the values were obtained:
[1] = target: T1, V-type proton ATPase subunit c' (Saccharomyces cerevisiae S288c, UniProt P32842); assay: Dose Response of Small Molecules that Regulate V-ATPase Proton Transport in Yeast using pHLuorin, Cherry Pick 2.; type: functional; conditions: read-out: EC50_MICROM
[2] = target: T1, V-type proton ATPase subunit c'; assay: Dose Response with BCECF Assay for V-ATPase inhibitors that increase vacuolar pH, Powder Set 1.; type: functional; conditions: read-out: EC50_MICROM
cells = type: functional
DNA topoisomerase = DNA topoisomerase (Yersinia pestis, UniProt A0A2S9PM60); assay: Y. pestis Topo-I inhibitors, cleavage product readout, dose response, biochemical, cherry-pick (AID 588525)
[3] = Luminescence Cell-Based Dose Confirmation to Identify Activators of 5'UTR Stem-Loop Driven Alpha-Synuclein mRNA Translation in H4 Neuroglioblastoma Cells. [Related pubchem assays: 1829 (Project Summary), 1814 (Primary HTS)]; type: functional
[4] = Luminescence Cell-Based Dose Response to Identify Activators of 5'UTR Stem-Loop Driven Prion Protein mRNA Translation in H4-C Neuroglioblastoma Cells. [Related pubchem assays: 1829 (Project Summary), 1814 (Primary HTS)]; type: functional
HEK293 = assay: cells; type: functional, cell-based; conditions: Homo sapiens
[5] = Luminescence Cell-Based Dose Confirmation HTS to Identify Activators of 5'UTR Stem-Loop Driven Alpha-Synuclein mRNA Translation in H4 Neuroglioblastoma Cells. [Related pubchem assays: 1829 (Project Summary), 1814 (Primary HTS)]; type: functional
[6] = Luminescence Cell-Based Dose Response HTS to Identify Activators of Luciferase Translation or Activity in H4 […] Cells. [Related pubchem assays: 1829 (Project Summary), 1814 (Primary HTS)]; type: functional
[7] = HepG2 cell cytotoxicity, dose response, cytotoxicity control, ATP luminescence, cherry-pick, activator set 2 (AID 1053143); type: functional, cell-based
[8] = Luminescence Cell-Based Dose Response to Identify Activators of Luciferase Translation or Activity in H4-C Neuroglioblastoma Cells. [Related pubchem assays: 1829 (Project Summary), 1814 (Primary HTS)]; type: functional
[9] = target: T2, Nuclear receptor subfamily 0 group B member 1 (Homo sapiens, UniProt P51843); assay: Luminescence-based cell-based high throughput dose response assay for inhibitors of the orphan nuclear receptor subfamily 0, group B, member 1 (DAX1; NR0B1). [Related pubchem assays (depositor defined):AID504766, AID504790]; type: functional
T2 sequence (P51843 whole entry): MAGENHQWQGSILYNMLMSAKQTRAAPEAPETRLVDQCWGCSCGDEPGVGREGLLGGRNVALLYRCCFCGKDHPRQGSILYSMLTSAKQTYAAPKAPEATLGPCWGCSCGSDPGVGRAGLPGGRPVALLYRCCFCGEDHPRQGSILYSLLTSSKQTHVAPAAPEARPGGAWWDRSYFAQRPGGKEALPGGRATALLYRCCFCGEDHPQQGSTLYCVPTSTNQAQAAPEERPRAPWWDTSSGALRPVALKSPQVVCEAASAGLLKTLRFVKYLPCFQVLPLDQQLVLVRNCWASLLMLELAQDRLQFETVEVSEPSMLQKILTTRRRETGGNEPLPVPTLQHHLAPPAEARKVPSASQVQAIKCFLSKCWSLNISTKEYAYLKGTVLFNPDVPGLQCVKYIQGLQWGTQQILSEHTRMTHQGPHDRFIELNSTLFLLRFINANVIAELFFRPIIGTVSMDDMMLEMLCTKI

H4 = assay: Luminescence Cell-Based Dose Response HTS to Identify Activators of 5'UTR Stem-Loop Driven Prion Protein mRNA Translation in H4 Neuroglioblastoma Cells. [Related pubchem assays: 1829 (Project Summary), 1814 (Primary HTS)]; type: functional; conditions: Homo sapiens
Beta Lactamase = Beta Lactamase (Pseudomonas aeruginosa, UniProt Q932Y6); assay: beta-lactamase reporter inhibitor potency, dose response, artefact control for TLR9-MyD88 binding inhibitor project, BLA reporter cells, FRET fluorescence (AID 588341); type: cell-based;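 further: cell based assay in CHO-K1 cells stably expressing beta-lactamase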
CHO = assay: cytotoxicity in TLR9-MyD88 CHO cells, dose response, cytotoxicity control for TLR9-MyD88 binding inhibitor project, cell-based, luminescence (AID 588339); type: functional, hamster; conditions: Cricetulus griseus;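 further: CHO cells stably coexpressing TLR9 and MyD88 fusions from primary screen; compound exposure lasted 48 hours before viability readout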
[10] = target: T3, Sentrin-specific protease 8 (Homo sapiens, UniProt Q96LD8); type: functional
T3 sequence (Q96LD8 whole entry): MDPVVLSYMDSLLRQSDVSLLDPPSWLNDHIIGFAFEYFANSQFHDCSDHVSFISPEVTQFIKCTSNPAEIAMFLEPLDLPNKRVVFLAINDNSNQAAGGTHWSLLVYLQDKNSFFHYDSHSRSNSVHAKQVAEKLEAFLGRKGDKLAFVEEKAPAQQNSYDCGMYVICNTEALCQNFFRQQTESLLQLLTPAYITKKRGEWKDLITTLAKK

[11] = target: Tyrosyl-DNA phosphodiesterase 2 (Homo sapiens, UniProt O95551); assay: human TDP2 enzyme inhibitors, dose response, biochemical, epi absorbance, IC50 (AID 743297)
[12] = target: T4, Apoptotic protease-activating factor 1 (Homo sapiens, UniProt O14727); type: functional
T4 sequence (O14727 whole entry): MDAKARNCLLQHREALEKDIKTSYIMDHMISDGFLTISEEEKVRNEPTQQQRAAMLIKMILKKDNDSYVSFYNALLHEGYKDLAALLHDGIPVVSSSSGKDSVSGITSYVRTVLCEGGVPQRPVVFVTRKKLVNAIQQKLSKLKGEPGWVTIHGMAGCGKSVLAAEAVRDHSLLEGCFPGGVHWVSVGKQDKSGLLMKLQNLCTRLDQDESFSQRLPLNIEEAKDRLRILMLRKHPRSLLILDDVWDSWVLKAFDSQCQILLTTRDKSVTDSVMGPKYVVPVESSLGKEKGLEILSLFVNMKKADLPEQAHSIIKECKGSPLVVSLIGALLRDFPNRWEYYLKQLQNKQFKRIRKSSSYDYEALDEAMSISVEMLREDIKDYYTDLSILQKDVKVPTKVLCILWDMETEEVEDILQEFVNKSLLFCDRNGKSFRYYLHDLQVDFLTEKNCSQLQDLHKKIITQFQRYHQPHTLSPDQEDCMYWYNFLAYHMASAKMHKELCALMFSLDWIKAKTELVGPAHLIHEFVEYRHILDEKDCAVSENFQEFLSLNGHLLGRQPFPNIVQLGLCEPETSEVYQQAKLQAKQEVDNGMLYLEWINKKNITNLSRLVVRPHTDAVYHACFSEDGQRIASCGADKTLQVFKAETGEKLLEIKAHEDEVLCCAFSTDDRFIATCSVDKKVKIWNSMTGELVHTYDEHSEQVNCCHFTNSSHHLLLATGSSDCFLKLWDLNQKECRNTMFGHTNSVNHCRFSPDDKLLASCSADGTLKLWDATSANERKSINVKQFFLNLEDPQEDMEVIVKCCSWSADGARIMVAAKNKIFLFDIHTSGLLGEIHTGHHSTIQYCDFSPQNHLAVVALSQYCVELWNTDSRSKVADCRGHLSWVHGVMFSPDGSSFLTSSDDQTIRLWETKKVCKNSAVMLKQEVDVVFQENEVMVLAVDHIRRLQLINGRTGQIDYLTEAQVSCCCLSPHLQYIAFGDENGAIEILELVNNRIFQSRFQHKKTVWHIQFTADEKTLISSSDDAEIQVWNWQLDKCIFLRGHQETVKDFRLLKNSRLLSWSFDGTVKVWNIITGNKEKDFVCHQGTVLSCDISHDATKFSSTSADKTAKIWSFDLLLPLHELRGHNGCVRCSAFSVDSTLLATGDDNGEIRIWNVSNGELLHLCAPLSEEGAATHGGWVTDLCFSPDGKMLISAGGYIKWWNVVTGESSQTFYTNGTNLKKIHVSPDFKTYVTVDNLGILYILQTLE

[13] = target: T3, Sentrin-specific protease 8; type: functional; remark: listed apart in the source
[14] = target: T5, Histone-lysine N-methyltransferase NSD2 (Homo sapiens, UniProt O96028); type: biochemical
T5 sequence (O96028 whole entry): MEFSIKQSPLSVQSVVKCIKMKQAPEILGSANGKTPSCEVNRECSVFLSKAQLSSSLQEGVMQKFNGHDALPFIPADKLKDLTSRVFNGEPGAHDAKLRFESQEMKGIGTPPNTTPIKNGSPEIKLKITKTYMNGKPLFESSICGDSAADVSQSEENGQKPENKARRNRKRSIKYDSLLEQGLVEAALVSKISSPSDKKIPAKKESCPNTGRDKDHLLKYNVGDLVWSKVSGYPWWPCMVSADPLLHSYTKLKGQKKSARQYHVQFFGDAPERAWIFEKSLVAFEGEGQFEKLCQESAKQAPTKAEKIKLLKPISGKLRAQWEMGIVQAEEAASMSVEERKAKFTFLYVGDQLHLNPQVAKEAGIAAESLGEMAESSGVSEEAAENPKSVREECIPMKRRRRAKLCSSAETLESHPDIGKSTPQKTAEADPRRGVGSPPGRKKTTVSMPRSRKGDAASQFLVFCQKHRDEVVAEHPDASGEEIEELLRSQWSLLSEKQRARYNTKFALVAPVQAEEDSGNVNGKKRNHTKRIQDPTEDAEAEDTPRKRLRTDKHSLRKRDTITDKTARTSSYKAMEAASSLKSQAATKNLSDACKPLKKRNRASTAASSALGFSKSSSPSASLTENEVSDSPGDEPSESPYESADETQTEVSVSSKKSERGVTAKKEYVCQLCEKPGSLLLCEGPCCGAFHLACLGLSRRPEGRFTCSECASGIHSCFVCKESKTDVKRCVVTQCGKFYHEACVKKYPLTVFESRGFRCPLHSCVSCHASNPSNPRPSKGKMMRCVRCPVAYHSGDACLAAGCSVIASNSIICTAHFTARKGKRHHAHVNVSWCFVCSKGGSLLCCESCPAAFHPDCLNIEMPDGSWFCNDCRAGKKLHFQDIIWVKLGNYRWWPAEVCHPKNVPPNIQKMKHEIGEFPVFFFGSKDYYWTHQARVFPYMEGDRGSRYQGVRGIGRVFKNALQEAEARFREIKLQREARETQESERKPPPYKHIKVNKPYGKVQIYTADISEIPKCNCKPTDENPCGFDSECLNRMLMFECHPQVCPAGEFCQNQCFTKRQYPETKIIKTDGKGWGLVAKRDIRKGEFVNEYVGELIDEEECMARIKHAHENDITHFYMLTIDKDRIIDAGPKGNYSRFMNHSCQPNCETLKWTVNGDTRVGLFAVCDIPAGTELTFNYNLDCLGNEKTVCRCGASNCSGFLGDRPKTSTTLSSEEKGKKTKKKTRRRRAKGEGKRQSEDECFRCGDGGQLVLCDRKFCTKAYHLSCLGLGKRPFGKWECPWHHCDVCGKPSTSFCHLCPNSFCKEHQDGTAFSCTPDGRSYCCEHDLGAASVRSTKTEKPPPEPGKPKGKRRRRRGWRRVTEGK

INS1 = assay: inhibitors of cytokine-induced nitrite release, dose response, cell-based, Griess absorbance, INS-1E, dry powder, set 2 (AID 488868); type: functional; conditions: Rattus norvegicus
[15] = inhibitors of cytokine-induced nitrite release, dose response, cell-based, Griess absorbance, INS-1E, dry powder, set 3 (AID 488870); type: functional; conditions: Rattus norvegicus
[16] = target: DNA dC->dU-editing enzyme APOBEC-3G (Homo sapiens, UniProt Q9HC16); assay: APOBEC3G deaminase inhibitors, SAR follow-up, biochemical, fluorescence, single-stranded DNA substrate (AID 602136); type: functional; conditions: read-out: IC50_Mean
[17] = target: DNA dC->dU-editing enzyme APOBEC-3A (Homo sapiens, UniProt P31941); assay: SAR analysis of small molecule inhibitors of APOBEC3A DNA Deaminase via a fluorescence-based single-stranded DNA deaminase assay.; type: functional; conditions: read-out: IC50_Mean
Beta-galactosidase = Beta-galactosidase (Escherichia coli, UniProt Q8VNN2); assay: PubChem AID 485352; type: functional
[18] = target: T6, Type-1 angiotensin II receptor (Homo sapiens, UniProt P30556); assay: AT1 receptor antagonists, dose response, selectivity assay for APJ receptor antagonist project, cell-based, uHTS hits (AID 463214); type: functional;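 further: antagonist potency against angiotensin II stimulated AT1 response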
T6 sequence (P30556 whole entry): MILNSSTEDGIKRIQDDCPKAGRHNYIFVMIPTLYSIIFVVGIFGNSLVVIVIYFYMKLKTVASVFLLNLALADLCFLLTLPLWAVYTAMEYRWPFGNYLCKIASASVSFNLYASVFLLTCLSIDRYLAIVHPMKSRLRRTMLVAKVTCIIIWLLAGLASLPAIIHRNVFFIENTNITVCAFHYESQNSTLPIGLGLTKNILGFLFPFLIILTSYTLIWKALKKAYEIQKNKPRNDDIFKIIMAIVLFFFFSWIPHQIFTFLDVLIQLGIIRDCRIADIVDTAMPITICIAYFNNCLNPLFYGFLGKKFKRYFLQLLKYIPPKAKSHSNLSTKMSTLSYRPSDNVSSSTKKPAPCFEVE

T1 sequence (P32842 whole entry): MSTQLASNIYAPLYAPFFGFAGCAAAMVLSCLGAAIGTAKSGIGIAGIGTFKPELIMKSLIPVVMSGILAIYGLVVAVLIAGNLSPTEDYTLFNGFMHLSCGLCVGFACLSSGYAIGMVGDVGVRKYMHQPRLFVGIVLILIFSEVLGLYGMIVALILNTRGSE
DNA dC->dU-editing enzyme APOBEC-3G, sequence (Q9HC16 whole entry): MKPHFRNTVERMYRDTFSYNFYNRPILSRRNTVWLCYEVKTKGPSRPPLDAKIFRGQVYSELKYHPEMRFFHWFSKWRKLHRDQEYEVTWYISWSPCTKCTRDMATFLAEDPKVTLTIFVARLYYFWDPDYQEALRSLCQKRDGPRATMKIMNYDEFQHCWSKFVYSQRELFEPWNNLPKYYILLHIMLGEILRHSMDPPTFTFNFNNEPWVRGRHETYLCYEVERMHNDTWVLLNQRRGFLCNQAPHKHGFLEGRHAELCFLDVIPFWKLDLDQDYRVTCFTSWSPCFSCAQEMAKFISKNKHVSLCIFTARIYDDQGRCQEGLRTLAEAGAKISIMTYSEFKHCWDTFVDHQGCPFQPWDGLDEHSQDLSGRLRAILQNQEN
Tyrosyl-DNA phosphodiesterase 2, sequence (O95551 whole entry): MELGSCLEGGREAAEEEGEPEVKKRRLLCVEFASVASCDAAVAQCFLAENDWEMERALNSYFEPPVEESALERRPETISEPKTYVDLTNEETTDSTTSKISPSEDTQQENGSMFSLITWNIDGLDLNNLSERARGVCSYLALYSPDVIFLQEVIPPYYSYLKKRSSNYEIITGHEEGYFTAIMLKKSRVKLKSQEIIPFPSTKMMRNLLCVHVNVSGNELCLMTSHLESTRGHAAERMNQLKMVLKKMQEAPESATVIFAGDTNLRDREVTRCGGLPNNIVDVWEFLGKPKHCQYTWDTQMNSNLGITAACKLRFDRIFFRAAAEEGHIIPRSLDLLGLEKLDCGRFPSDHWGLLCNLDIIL
Beta Lactamase, sequence (Q932Y6 whole entry, the tested form may be a part): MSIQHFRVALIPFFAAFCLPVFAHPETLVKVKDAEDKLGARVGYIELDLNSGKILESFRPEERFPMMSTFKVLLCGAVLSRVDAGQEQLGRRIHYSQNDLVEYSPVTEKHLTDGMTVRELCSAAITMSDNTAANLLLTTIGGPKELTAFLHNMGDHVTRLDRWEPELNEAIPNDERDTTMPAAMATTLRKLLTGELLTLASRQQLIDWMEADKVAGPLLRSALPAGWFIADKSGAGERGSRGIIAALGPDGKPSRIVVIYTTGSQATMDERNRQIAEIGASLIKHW
DNA topoisomerase, sequence (A0A2S9PM60 whole entry): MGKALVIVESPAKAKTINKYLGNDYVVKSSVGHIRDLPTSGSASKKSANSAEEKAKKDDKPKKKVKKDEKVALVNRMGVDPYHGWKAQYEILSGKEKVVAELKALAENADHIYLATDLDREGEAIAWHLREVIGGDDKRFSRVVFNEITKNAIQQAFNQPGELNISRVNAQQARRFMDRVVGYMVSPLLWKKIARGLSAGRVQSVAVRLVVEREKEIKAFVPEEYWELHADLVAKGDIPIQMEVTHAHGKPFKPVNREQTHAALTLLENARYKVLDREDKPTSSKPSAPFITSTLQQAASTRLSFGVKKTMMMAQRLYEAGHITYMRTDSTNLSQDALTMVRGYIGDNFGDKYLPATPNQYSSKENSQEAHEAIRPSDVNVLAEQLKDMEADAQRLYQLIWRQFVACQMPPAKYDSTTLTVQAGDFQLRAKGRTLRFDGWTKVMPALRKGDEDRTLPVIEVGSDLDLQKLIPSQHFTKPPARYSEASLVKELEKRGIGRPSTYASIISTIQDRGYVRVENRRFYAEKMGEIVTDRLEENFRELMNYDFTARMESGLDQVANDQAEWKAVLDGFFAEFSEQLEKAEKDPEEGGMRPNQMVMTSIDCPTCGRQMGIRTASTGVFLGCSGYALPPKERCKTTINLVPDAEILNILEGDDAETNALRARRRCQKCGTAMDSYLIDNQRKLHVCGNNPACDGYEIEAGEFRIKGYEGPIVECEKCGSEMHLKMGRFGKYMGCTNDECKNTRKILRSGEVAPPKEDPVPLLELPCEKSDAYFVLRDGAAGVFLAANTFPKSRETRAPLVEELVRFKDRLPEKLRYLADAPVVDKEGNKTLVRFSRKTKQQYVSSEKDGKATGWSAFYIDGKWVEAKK
DNA dC->dU-editing enzyme APOBEC-3A, sequence (P31941 whole entry): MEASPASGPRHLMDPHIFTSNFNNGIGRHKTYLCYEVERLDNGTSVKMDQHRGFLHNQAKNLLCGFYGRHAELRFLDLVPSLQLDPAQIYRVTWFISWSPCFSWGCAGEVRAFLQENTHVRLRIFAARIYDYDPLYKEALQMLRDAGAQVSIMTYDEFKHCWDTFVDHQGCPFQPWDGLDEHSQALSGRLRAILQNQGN
Beta-galactosidase, sequence (Q8VNN2 whole entry): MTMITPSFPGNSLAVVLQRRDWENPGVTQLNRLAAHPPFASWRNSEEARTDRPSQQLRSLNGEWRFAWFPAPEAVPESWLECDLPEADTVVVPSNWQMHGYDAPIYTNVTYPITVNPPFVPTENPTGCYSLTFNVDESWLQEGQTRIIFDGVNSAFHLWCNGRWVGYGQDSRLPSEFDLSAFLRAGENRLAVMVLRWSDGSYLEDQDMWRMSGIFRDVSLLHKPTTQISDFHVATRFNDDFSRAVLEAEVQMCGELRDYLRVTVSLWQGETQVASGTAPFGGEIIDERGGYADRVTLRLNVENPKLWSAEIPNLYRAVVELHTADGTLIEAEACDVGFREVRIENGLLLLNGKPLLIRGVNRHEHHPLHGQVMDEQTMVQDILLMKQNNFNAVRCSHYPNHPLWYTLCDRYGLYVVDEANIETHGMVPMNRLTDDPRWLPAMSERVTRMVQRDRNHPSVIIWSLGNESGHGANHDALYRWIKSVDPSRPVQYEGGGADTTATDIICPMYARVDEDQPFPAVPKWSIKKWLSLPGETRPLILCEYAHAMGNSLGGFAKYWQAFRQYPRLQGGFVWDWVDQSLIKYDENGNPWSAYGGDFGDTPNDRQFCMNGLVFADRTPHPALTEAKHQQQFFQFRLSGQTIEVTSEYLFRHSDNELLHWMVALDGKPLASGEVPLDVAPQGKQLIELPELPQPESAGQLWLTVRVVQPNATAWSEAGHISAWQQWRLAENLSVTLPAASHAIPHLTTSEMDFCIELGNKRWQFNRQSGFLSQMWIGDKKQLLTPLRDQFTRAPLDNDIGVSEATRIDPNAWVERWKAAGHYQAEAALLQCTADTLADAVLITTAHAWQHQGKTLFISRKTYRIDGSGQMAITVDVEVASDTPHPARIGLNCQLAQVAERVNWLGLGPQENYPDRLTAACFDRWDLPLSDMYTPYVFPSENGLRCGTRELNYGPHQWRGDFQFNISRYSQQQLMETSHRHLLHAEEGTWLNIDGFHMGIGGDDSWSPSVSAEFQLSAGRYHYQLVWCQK

## O=C(c1ccc([N+](=O)[O-])o1)N1CCN(c2nc3ccc(F)cc3s2)CC1
[1]
  EC50: 3.64 µM (active)
[2]
  EC50: 0.384 µM (active)
cells
  IC50: < 0.1 µM (active)

## Cc1ccc(-n2c(C)cc(C(=O)Cn3nc(C(=O)O)c4ccccc4c3=O)c2C)cc1
DNA topoisomerase
  AC50: 5.3 µM (active)

## O=C(Nc1ncccc1O)c1ccc2c(c1)OCCO2
[3]
  EC50: 0.329 µM (active)
[4]
  EC50: 7.24 µM (active)
HEK293
  IC50: 1.59 µM (active)
[5]
  EC50: 0.185 µM (active)
[6]
  EC50: 0.155 µM (active)
[7]
  AC50: 12 µM (active)
[8]
  EC50: > 12 µM (not active)
[9]
  IC50: > 67.5 µM (inactive)
H4
  EC50: 0.139 µM (active)

## O=C(C1=NN(c2ccccc2)C2C(=O)N(c3ccc(Cl)cc3)C(=O)C12)c1ccccc1 (stereo unspecified)
Beta Lactamase
  IC50: 11.8 µM (inactive)
CHO
  IC50: > 49.7 µM (inactive)

## C[n+]1cccc2c(Br)ccc([O-])c21
[10]
  IC50: 4.18 µM (active)
[11]
  IC50: > 42.8 µM (inactive)
[12]
  IC50: 92 µM (active)
[13]
  IC50: 1.64 µM (active)
[14]
  AC50: 7.45 µM (active)

## COc1ccc(S(=O)(=O)N(C)C[C@@H]2Oc3c(NC(=O)NC4CCCCC4)cccc3C(=O)N([C@@H](C)CO)C[C@H]2C)cc1
INS1
  AC50: 44.5 µM (active)
[15]
  AC50: 64.5 µM (active)

## Cc1cc(C(=O)CSc2nnc3scc(-c4ccccc4)n23)c(C)n1-c1cc(F)ccc1F
[16]
  IC50: > 99 µM (inactive)
[17]
  IC50: > 99 µM (inactive)

## CN1/C(=c2/s/c(=C3/C(=O)N(c4ccccc4)N=C3Nc3ccccc3)n(C)c2=O)C(C)(C)c2ccccc21
Beta-galactosidase
  EC50: 39.9 µM (active)
[18]
  IC50: 27 µM (not active)

Reference: ChEMBL document CHEMBL1201862, “PubChem BioAssay data set” (2004)
